In US7879846B2, “Serine hydrolase inhibitors” (Kyorin Pharmaceutical Co.., Ltd., priority 2006, dated 2011):

Molecular target: T1, Human sputum neutrophil elastase (Homo sapiens, UniProt P08246)
T1 construct: purchased Elastin Products Co; host or cells: human sputum (natural source)
T1 sequence (P08246 30-247 limits assumed): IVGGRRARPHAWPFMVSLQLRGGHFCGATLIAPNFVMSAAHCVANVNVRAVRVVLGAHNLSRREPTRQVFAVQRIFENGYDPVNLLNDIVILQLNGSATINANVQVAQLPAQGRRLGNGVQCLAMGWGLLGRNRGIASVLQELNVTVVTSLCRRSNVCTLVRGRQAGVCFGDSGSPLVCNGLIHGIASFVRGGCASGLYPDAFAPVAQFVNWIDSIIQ
Test: Inhibitor IC50 against human neutrophil elastase (fluorogenic MeOSuc-AAPV-AMC substrate)
Format: biochemical
Settings: 20 min preincubation, read-out: HNE IC50
Protocol: Determination of Inhibitor IC50 Values Against Human Neutrophil Elastase
Human sputum neutrophil elastase (Elastin Products Co.) was diluted into Assay Buffer A (200 mM Tris pH 7.4, 1 mg/ml BSA) to a working concentration of 0.55 U/ml. […] DMSO alone was used as the negative control. MeOSuc-AAPV-AMC (Bachem) substrate was dissolved in DMSO to 20 mM and further diluted to 1 mM in Assay Buffer A immediately before use. Substrate was added to the elastase assay at a final concentration of 1×10^−4 M. The reaction was allowed to proceed for 20 minutes at room temperature and then quenched with acetic acid at a final concentration of 3% (v/v). […] Fluorescence intensity versus inhibitor concentration was plotted and fit to the Hill equation to quantify IC50 values.

SMILES	IC50
Cc1cccc2nc(-c3cnccn3)oc(=O)c12 [Compound 5]	0.061 to 0.15 µM
Cc1cccc2nc(-c3cc[n+]([O-])cc3)oc(=O)c12 [Compound 6]	> 0.15 µM
O=c1oc(-c2cccs2)nc2ccccc12 [Compound 8]	> 0.15 µM
Cc1cccc2nc(-c3ccncc3)oc(=O)c12 [Compound 9]	> 0.15 µM
O=c1oc(-c2ccccn2)nc2cc(Cl)cc(Cl)c12 [Compound 11]	> 0.15 µM
O=c1oc(-c2ccccn2)nc2cccc(Cl)c12 [Compound 12]	0.061 to 0.15 µM
O=c1oc(-c2cccnc2Oc2ccccc2)nc2cc(Cl)cc(Cl)c12 [Compound 14]	> 0.15 µM
O=c1oc(-c2ccccn2)nc2ccccc12 [Compound 17]	> 0.15 µM
Cc1cccnc1-c1nc2cccc(C)c2c(=O)o1 [Compound 19]	> 0.15 µM
Cc1cccc2nc(-c3cccnc3Cl)oc(=O)c12 [Compound 20]	0.016 to 0.06 µM
COc1ccc(-c2nc3cccc(C)c3c(=O)o2)c(OC)n1 [Compound 22]	< 0.015 µM
CSc1ncccc1-c1nc2cccc(C)c2c(=O)o1 [Compound 23]	0.061 to 0.15 µM
Cc1ccc(Sc2ncccc2-c2nc3cccc(C)c3c(=O)o2)cc1 [Compound 24]	> 0.15 µM
O=c1oc(-c2cccnc2Oc2ccc(Cl)cc2)nc2cccc(Cl)c12 [Compound 25]	0.016 to 0.06 µM
CSc1ncccc1-c1nc2cccc(Cl)c2c(=O)o1 [Compound 27]	0.061 to 0.15 µM
Cc1ccc(Sc2ncccc2-c2nc3cccc(Cl)c3c(=O)o2)cc1 [Compound 28]	0.061 to 0.15 µM
Cc1cccc2nc(-c3cccnc3SCCS(=O)(=O)c3ccccc3)oc(=O)c12 [Compound 29]	0.016 to 0.06 µM
O=c1oc(-c2cccnc2SCCS(=O)(=O)c2ccccc2)nc2cccc(Cl)c12 [Compound 30]	0.016 to 0.06 µM
Cc1cccc2nc(-c3cccnc3N3CCC[C@H]3C(=O)OC(C)(C)C)oc(=O)c12 [Compound 32]	0.016 to 0.06 µM
COC(=O)[C@H]1CCCN1c1ncccc1-c1nc2cccc(C)c2c(=O)o1 [Compound 33]	0.016 to 0.06 µM
Cc1cccc2nc(-c3cccnc3F)oc(=O)c12 [Compound 34]	0.061 to 0.15 µM

SMILES	IC50
Cc1cccc2nc(-c3cccnc3Oc3ccc4c(c3)OCO4)oc(=O)c12 [Compound 37]	0.016 to 0.06 µM
COc1ccc(-c2nc3cccc(Cl)c3c(=O)o2)c(OC)n1 [Compound 38]	< 0.015 µM
CCSc1ncccc1-c1nc2cccc(C)c2c(=O)o1 [Compound 40]	> 0.15 µM
COc1cccc2nc(-c3cccnc3N(C)CC(=O)OCc3ccccc3)oc(=O)c12 [Compound 41]	> 0.15 µM
COc1cccc2nc(-c3cccnc3N3CCC[C@H]3C(=O)OC(C)(C)C)oc(=O)c12 [Compound 42]	> 0.15 µM
COC(=O)[C@H]1CCCN1c1ncccc1-c1nc2cccc(OC)c2c(=O)o1 [Compound 43]	> 0.15 µM
COc1cccc2nc(-c3cccnc3N3CCN(C)C(C)C3)oc(=O)c12 (stereo not shown) [Compound 45]	> 0.15 µM
COCCN(CCOC)c1ncccc1-c1nc2cccc(C)c2c(=O)o1 [Compound 55]	> 0.15 µM
Cc1cccc2nc(-c3cccnc3OCCOCCOCCOCc3ccccc3)oc(=O)c12 [Compound 56]	> 0.15 µM
Cc1cccc2nc(-c3cccnc3OCCOCCOCCOCCO)oc(=O)c12 [Compound 57]	0.061 to 0.15 µM
Cc1cccc2nc(-c3cccnc3OCCOCCOCCOCCOc3ncccc3C(=O)O)oc(=O)c12 [Compound 58]	0.061 to 0.15 µM
Cc1cccc2nc(-c3cccnc3OCCOCCOCCOCCOc3ncccc3-c3nc4cccc(C)c4c(=O)o3)oc(=O)c12 [Compound 59]	0.061 to 0.15 µM
CCN(CC)CC1CN(c2ncccc2-c2nc3cccc(C)c3c(=O)o2)CCO1 (stereo not shown) [Compound 60]	> 0.15 µM
Cc1cccc2nc(-c3cccnc3OCCN(C)C)oc(=O)c12 [Compound 61]	> 0.15 µM
Cc1cccc2nc(-c3cccnc3N3CCS(=O)(=O)CC3)oc(=O)c12 [Compound 62]	> 0.15 µM
CN1CCN(c2ncccc2-c2nc3cccc(C(F)(F)F)c3c(=O)o2)CC1 [Compound 63]	0.016 to 0.06 µM
O=c1oc(-c2cccnc2-n2ccnc2)nc2cccc(C(F)(F)F)c12 [Compound 64]	< 0.015 µM
Cc1cccc2nc(-c3cccnc3-n3cc[n+](C)c3)oc(=O)c12 [Compound 65]	> 0.15 µM
COc1cccc2nc(-c3cccnc3-n3ccnc3)oc(=O)c12 [Compound 66]	> 0.15 µM
CCc1cccc2nc(-c3cccnc3-n3ccnc3)oc(=O)c12 [Compound 67]	< 0.015 µM
Cc1cccc2nc(-c3ncccc3-n3ccnc3)oc(=O)c12 [Compound 68]	> 0.15 µM

SMILES	IC50
COc1cccc2nc(-c3ncccc3-n3ccnc3)oc(=O)c12 [Compound 69]	> 0.15 µM
O=c1oc(-c2ncccc2-n2ccnc2)nc2cccc(Cl)c12 [Compound 70]	> 0.15 µM
O=c1oc(-c2cccnc2-n2ccnc2)nc2cccc(Cl)c12 [Compound 71]	> 0.15 µM
O=c1oc(-c2cccnc2-n2ccnc2)nc2cccc(Br)c12 [Compound 72]	0.061 to 0.15 µM
Cc1cccc2nc(-c3cccc[n+]3[O-])oc(=O)c12 [Compound 73]	> 0.15 µM
COc1cc(C)c2c(=O)oc(-c3cccnc3-n3ccnc3)nc2c1 [Compound 83]	> 0.15 µM
CCc1cccc2nc(-c3cccnc3-n3cc[n+](C)c3)oc(=O)c12 [Compound 84]	0.016 to 0.06 µM
CCc1cccc2nc(-c3cccnc3N3CCC(N(C)C)C3)oc(=O)c12 (stereo not shown) [Compound 85]	< 0.015 µM
CCc1cccc2cc(-c3c[n+]([O-])ccc3Sc3ccc(Cl)cc3)oc(=O)c12 [Compound 86]	0.061 to 0.15 µM
CCc1cccc2nc(-c3cccnc3-n3cc[n+](CCCS(=O)(=O)[O-])c3)oc(=O)c12 [Compound 87]	< 0.015 µM
CCc1cccc2nc(-c3cccnc3N3CCN(CCOC)CC3)oc(=O)c12 [Compound 89]	< 0.015 µM
CCc1cccc2nc(-c3cccnc3N3CC[C@H](N(C)C)C3)oc(=O)c12 [Compound 91]	< 0.015 µM
CCc1cccc2nc(-c3cccnc3N3CCCN(C)CC3)oc(=O)c12 [Compound 92]	< 0.015 µM
CCc1cccc2nc(-c3cccnc3N3CCN(CCC#N)CC3)oc(=O)c12 [Compound 93]	< 0.015 µM
CCc1cccc2nc(-c3cccnc3-n3cc[n+](Cc4ccc(Cl)cc4)c3)oc(=O)c12 [Compound 94]	0.016 to 0.06 µM
CCc1cccc2nc(-c3cccnc3N3CC[N+](C)(C)CC3)oc(=O)c12 [Compound 95]	< 0.015 µM
CCc1cccc2nc(-c3cccnc3N3CC[N+](C)(CCOC)CC3)oc(=O)c12 [Compound 96]	< 0.015 µM
CCc1cccc2nc(-c3ncccc3-n3ccnc3)oc(=O)c12 [Compound 97]	< 0.015 µM
CCc1cccc2nc(-c3cccnc3N3CCC[C@H]3CN3CCCC3)oc(=O)c12 [Compound 98]	< 0.015 µM
CCc1cccc2nc(-c3cccnc3N3CCN(Cc4ccc(F)cc4)CC3)oc(=O)c12 [Compound 99]	< 0.015 µM
CCc1cccc2nc(-c3cccnc3N3CC[C@@H](N(C)C)C3)oc(=O)c12 [Compound 100]	< 0.015 µM

SMILES	IC50
CCc1cccc2nc(-c3cccnc3N3CC[N+](C)(CC(N)=O)CC3)oc(=O)c12 [Compound 101]	< 0.015 µM
CCc1cccc2nc(-c3cccnc3N3CC[N+](C)(Cc4ccc(OC)cc4)CC3)oc(=O)c12 [Compound 102]	< 0.015 µM
CCc1cccc2nc(-c3cccnc3N3CC[N+](C)(CC4CC4)CC3)oc(=O)c12 [Compound 103]	< 0.015 µM
CCc1cccc2nc(-c3cccnc3N3CCN4CCCC4C3)oc(=O)c12 (stereo not shown) [Compound 104]	< 0.015 µM
CCc1cc(OC)cc2nc(-c3cccnc3-n3ccnc3)oc(=O)c12 [Compound 106]	< 0.015 µM
COCCOCCOCCOCCOCCOCCOCCOc1ncccc1-c1nc2cc(OC)cc(C(C)C)c2c(=O)o1 [Compound 108]	> 0.15 µM
COc1cc(C(C)C)c2c(=O)oc(-c3cccnc3-n3ccnc3)nc2c1 [Compound 109]	0.016 to 0.06 µM
COc1cc(C(C)C)c2c(=O)oc(-c3cccnc3N3CC[C@@H](N(C)C)C3)nc2c1 [Compound 110]	0.061 to 0.15 µM
COc1cc(C(C)C)c2c(=O)oc(-c3cccnc3N3CC[C@H](N(C)C)C3)nc2c1 [Compound 111]	0.061 to 0.15 µM
COc1cc(C(C)C)c2c(=O)oc(-c3cccnc3N3CCN(CC4CC4)CC3)nc2c1 [Compound 112]	0.061 to 0.15 µM
COCCN1CCN(c2ncccc2-c2nc3cc(OC)cc(C(C)C)c3c(=O)o2)CC1 [Compound 113]	0.061 to 0.15 µM
COc1cc(C(C)C)c2c(=O)oc(-c3cccnc3N3CCN(CCN4CCOCC4)CC3)nc2c1 [Compound 114]	0.061 to 0.15 µM
COc1cc(C(C)C)c2c(=O)oc(-c3cccnc3N3CCN(CCN(C)C)CC3)nc2c1 [Compound 115]	0.061 to 0.15 µM
COc1cc(C(C)C)c2c(=O)oc(-c3cccnc3N(C)C3CCN(C)C3)nc2c1 (stereo not shown) [Compound 117]	0.061 to 0.15 µM
COc1cc(C(C)C)c2c(=O)oc(-c3cccnc3N(C)CCN(C)C)nc2c1 [Compound 118]	0.061 to 0.15 µM
COCCN1CCN(c2c(-c3nc4cc(OC)cc(C(C)C)c4c(=O)o3)cnn2C)CC1 [Compound 119]	> 0.15 µM
COc1cc(C(C)C)c2c(=O)oc(-c3cnn(C)c3[N+](=O)[O-])nc2c1 [Compound 120]	0.016 to 0.06 µM
COc1cc(C(C)C)c2c(=O)oc(-c3cccnc3N3CCCN(C)CC3)nc2c1 [Compound 122]	0.061 to 0.15 µM
COc1cc(C(C)C)c2c(=O)oc(-c3cnn(C)c3N3CCN(C)CC3)nc2c1 [Compound 123]	> 0.15 µM
